Here are results for twelve molecules from US10632089B2, “Tyrosinase activity inhibitor and external preparation for skin” (JO Cosmetics Co., Ltd., priority 2015, dated 2020).

Positions count from the first letter of the chain named. Counter-ions that a name gives are not always drawn. Like-named read-outs stand apart in the source and are kept apart here.

Data set [1] concerns the target T1, tyrosinase (derived from mushrooms) (Agaricus bisporus, UniProt C7FF04).
T1 construct: purchased Sigma
The experiment in a line: Test for evaluating inhibition of tyrosinase activity (DOPA substrate, absorbance at 475 nm). The class given is biochemical. Here is the method: (§1) After 2 minutes of the addition, the test solution was subjected to measurement of absorbance at 475 nm. Thus-obtained absorbance value was defined as D1. As a control, the same measurement was conducted on a test solution in which each sample was replaced with purified water, and the obtained absorbance value was defined as D2. An inhibition rate of tyrosinase activity was calculated by the following formula.

For data set [2], the system named is tyrosinase (derived from mushrooms). The data set is described as above. Type of data set: biochemical. Conditions: for Tyrosinase activity inhibition rate in the case of using both components/Sum of tyrosinase activity inhibition rate in the case of using each component alone: no second component; for Inhibition rate of tyrosinase activity in the case of conbining human manganese SOD/Inhibition rate of tyrosinase activity in the case without addition of human manganese SOD: (B-1) 0 unit/mL. As for the experimental part: as §1

The conditions of data set [3]: see paragraphs 0060, 0061 and 0072 of Patent Document 6; cited from earlier work.

T1 sequence (C7FF04 whole entry): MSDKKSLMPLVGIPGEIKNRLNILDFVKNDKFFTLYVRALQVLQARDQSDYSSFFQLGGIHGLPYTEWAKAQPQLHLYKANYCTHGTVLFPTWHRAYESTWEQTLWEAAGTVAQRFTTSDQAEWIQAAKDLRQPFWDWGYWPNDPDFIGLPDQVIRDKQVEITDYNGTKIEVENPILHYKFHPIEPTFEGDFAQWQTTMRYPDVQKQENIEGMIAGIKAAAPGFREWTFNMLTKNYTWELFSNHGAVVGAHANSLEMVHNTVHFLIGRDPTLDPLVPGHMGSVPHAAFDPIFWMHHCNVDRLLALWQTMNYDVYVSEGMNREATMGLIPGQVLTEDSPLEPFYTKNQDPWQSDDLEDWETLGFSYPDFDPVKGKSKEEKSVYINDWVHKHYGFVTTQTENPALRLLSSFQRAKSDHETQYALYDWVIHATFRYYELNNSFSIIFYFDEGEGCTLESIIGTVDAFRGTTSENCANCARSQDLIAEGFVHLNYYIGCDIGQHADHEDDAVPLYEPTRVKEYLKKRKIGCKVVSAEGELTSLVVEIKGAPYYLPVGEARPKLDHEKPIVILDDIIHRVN

In general, inhibition refers to the relative decrease from the control value, in per cent. As for `CCOC1=C(O)C(=O)O[C@@H]1[C@@H](O)CO` [3-O-ethylascorbic acid, reference compound], in data set [1] ((B-2) component only, 2.5 mg/mL, read-out: Inhibition rate of tyrosinase activity (%), (B) component only), the inhibition at 2500 µg/mL amounted to 29.9%.
For `O=C1O[C@H]([C@@H](O)CO)C(O)=C1O` [Ascorbic acid, ascorbic acid, reference compound], the inhibition at 10 µg/mL in data set [1] (read-out: Inhibition rate of tyrosinase activity (%), (B) component only) turned out to be 28.7%.
For `O=C1O[C@H]([C@@H](O)CO)C([O-])=C1OS(=O)(=O)[O-].[Na+].[Na+]` [Disodium ascorbyl sulfate, reference compound], the “Inhibition rate of tyrosinase activity (%), (B) component only” value (from here on “Inhibition rate … (%), (B) component only”) in data set [1] ((B-2) component only, 2.5 mg/mL) was 40.5%.
In the case of `O=C1O[C@H]([C@@H](O)CO)C([O-])=C1OP(=O)([O-])[O-].O=C1O[C@H]([C@@H](O)CO)C([O-])=C1OP(=O)([O-])[O-].[Mg+2].[Mg+2].[Mg+2]` [Magnesium ascorbyl phosphate, magnesium ascorbyl phosphate, reference compound], the “Inhibition rate … (%), (B) component only” value in data set [1] ((B-2) component only, 5 mg/mL) was found to be 11.1%.
Regarding `Cc1ncc(CO)c(CO)c1O` [Pyridoxine hydrochloride, pyridoxine hydrochloride, reference compound], in data set [1] (read-out: Inhibition rate of tyrosinase activity (%)), the inhibition at 5000 µg/mL was 42.9%.
In the case of `O=C1O[C@H]([C@@H](O)CO)C([O-])=C1OP(=O)([O-])[O-].[Na+].[Na+].[Na+]` [Sodium ascorbyl phosphate, sodium ascorbyl phosphate, reference compound], the “Inhibition rate … (%), (B) component only” value in data set [1] ((B-2) component only, 5 mg/mL) came out at 15.6%.
As to `OC[C@H]1O[C@@H](Oc2ccc(O)cc2)[C@H](O)[C@@H](O)[C@@H]1O` [arbutin, reference compound], the “inhibition rate of tyrosinase activity” value in data set [1] (arbutin solely, 3.0% by mass) is reported as 71.3%.
With `O=C1O[C@H]([C@@H](O)CO)C(O)=C1O[C@H]1O[C@H](CO)[C@@H](O)[C@H](O)[C@H]1O` [ascorbyl glucoside, 2-O-α-D-glucopyranosyl-L-ascorbic acid], the “inhibition rate of tyrosinase activity” value in data set [1] (ascorbic acid derivative (ascorbyl glucoside) solely, 2.0% by mass) was 21.9%. The inhibition at 5000 µg/mL in data set [1] (ascorbyl glucoside solely, 5 mg/mL, read-out: Inhibition rate of tyrosinase activity (%)) was determined as 8.4%. In data set [1] (ascorbyl glucoside solely, 10 mg/mL, read-out: Inhibition rate of tyrosinase activity (%)), the inhibition at 10000 µg/mL turned out to be 15.4%. In addition, the inhibition at 20000 µg/mL in data set [1] (ascorbyl glucoside solely, 20 mg/mL, read-out: Inhibition rate of tyrosinase activity (%)) is 26.8%.
As to `O=C(O)CCCCC1CCSS1` (stereo not drawn) [α-lipoic acid, 6,8-dithiooctanoic acid, reference compound], the “Tyrosinase activity inhibition rate in the case of using both components/Sum of tyrosinase activity inhibition rate in the case of using each component alone” value in data set [2] (α-lipoic acid 4.31 μg/mL) is reported as 1.00. Moreover, the “Inhibition rate of tyrosinase activity (%)” value in data set [1] (α-lipoic acid solely, 4.31 μg/mL) came to 0.7%.
With “zinc chelate compound of N-(6,8-dimercaptooctanoyl)-L-histidine sodium salt [histidine dithiooctanamide (Na/zinc)]”, the “Inhibition rate of tyrosinase activity in the case of conbining human manganese SOD/Inhibition rate of tyrosinase activity in the case without addition of human manganese SOD” value in data set [2] ((A) 1.08 μg/mL), in data set [2] ((A) 2.15 μg/mL), in data set [2] ((A) 3.23 μg/mL) and in data set [2] ((A) 4.31 μg/mL) was 1.00 throughout. Moreover, the “Tyrosinase activity inhibition rate in the case of using both components/Sum of tyrosinase activity inhibition rate in the case of using each component alone” value in data set [2] ((A) 1.08 μg/mL) and in data set [2] ((A) 2.15 μg/mL) was 1.00 throughout. The “Inhibition rate of tyrosinase activity (%)” value in data set [1] (histidine dithiooctanamide (Na/zinc) solely, 1.08 μg/mL (2.5 μM)) is 13.2%; in data set [1] (histidine dithiooctanamide (Na/zinc) solely, 2.15 μg/mL (5 μM)), 25.3%; in data set [1] (histidine dithiooctanamide (Na/zinc) solely, 3.23 μg/mL (7.5 μM)), 53.6%; in data set [1] (histidine dithiooctanamide (Na/zinc) solely, 4.31 μg/mL (10 μM)), 68.9%.

B1: MHS:Mn-SOD: human mutant manganese SOD, third amino acid from N-terminus serine substituted with arginine (Patent Document 6) (protein, UniProt P04179 25-222, looked up, variant S3R)
Superoxide dismutase [Mn], …: KHRLPDLPYDYGALEPHINAQIMQLHHSKHHAAYVNNLNVTEEKYQEALAKGDVTAQIALQPALKFNGGGHINHSIFWTNLSPNGGGEPKGELLEAIKRDFGSFDKFKEKLTAASVGVQGSGWGWLGFNKERGHLQIAACPNQDPLQGTTGLIPLLGIDVWEHAYYLQYKNVRPDYLKAIWNVINWENVTERYMACKK
As for B1, the isoelectric point result in data set [3] is on record as “about 8.2”.

B2: human manganese SOD: human manganese superoxide dismutase, "yeast extract (SOD)" commercially available from Biox Technologies, 3,000 units/mL (protein, UniProt P04179 25-222, looked up)
Superoxide dismutase [Mn], …: B1 Superoxide dismutase [Mn], … with R3S
For the molecule B2, the “Inhibition rate of tyrosinase activity (%)” value is on record as 4.53% in data set [1] (human manganese SOD solely, 3 units/mL); 4.5% in data set [1] (human manganese SOD solely, 3 units/mL, listed as (B-1) component); 3.74% in data set [1] (human manganese SOD solely, 15 units/mL); 3.7% in data set [1] (human manganese SOD solely, 15 units/mL, listed as (B-1) component); 4.66% in data set [1] (human manganese SOD solely, 150 units/mL); 4.7% in data set [1] (human manganese SOD solely, 150 units/mL, listed as (B-1) component).
